The values that follow come from ChEMBL document CHEMBL4011593, “Development of 2, 4-diaminoquinazoline derivatives as potent PAK4 inhibitors by the core refinement strategy” (Eur J Med Chem, 2017).

The bioavailability is dose-corrected exposure relative to a reference, in per cent. A higher bioavailability goes with much systemic uptake. A word on the IC50: it is the concentration that gives 50% inhibition.

Molecules are shown by their SMILES.

Tested on in the first data set: not listed separately
The data set is described as follows: Oral bioavailability in metastatic solid tumor patient. As to conditions: human, in vivo. Format: ADME, organism-based.
Regarding `Cc1nc(Nc2n[nH]c3c2CN(C(=O)N[C@H](CN(C)C)c2ccccc2)C3(C)C)c2sccc2n1` [PF-03758309], the bioavailability turned out to be 1%.

The target of another data set is T1, Serine/threonine-protein kinase PAK 4 (Homo sapiens, UniProt O96013). The data set is described as follows: Inhibition of recombinant human N-terminal GST-fused PAK4 (1 to 591 residues) expressed in baculovirus expression system using S2 as substrate measured after 40 mins by HTRF assay.
T1 sequence (O96013 whole entry, the tested form may be a part): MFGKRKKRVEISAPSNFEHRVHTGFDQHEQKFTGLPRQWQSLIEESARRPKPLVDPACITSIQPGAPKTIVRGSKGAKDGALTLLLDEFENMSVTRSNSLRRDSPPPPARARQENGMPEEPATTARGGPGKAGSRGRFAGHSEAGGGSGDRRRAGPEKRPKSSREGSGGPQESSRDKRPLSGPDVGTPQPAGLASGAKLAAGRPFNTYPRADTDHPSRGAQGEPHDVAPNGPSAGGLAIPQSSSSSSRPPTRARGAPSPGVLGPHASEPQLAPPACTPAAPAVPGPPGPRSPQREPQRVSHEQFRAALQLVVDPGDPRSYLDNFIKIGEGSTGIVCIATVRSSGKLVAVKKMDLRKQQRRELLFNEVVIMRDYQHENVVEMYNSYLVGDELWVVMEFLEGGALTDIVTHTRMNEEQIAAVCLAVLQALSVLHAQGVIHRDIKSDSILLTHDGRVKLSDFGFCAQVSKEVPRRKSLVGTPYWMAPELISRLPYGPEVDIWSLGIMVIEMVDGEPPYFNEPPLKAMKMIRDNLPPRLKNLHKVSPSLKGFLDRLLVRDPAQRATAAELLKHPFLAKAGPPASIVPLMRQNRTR
Settings: not given
Regarding `Clc1ccc2nc(Nc3cnc4[nH]ncc4c3)nc(NCCc3c[nH]c4ccccc34)c2c1`, the concentration for half-maximal inhibition (IC50) is 633 nM. As for `Clc1ccc2nc(Nc3cc(Cl)c4[nH]ncc4c3)nc(NCCc3c[nH]c4ccccc34)c2c1`, the IC50 came to 937 nM.

As to `Cc1cc(Nc2nc(NCCc3c[nH]c4ccccc34)c3cc(Cl)ccc3n2)cc2cn[nH]c12`, the IC50 was 2330 nM. Take `COc1ccc2nc(NCCc3c[nH]c4ccccc34)nc(Nc3ccc4[nH]ncc4c3)c2c1`: the half-inhibitory concentration (IC50) came to 1510 nM. On to `Clc1ccc2nc(Nc3cc(Br)c4[nH]ncc4c3)nc(NCCc3c[nH]c4ccccc34)c2c1`, for which the IC50 is 1060 nM.

Regarding `COc1ccc2c(Nc3ccc4[nH]ncc4c3)nc(NCCc3c[nH]c4ccccc34)nc2c1`, the IC50 worked out at 483 nM. Regarding `Clc1ccc2nc(Nc3ccc4cn[nH]c4c3)nc(NCCc3c[nH]c4ccccc34)c2c1`, the 50% inhibitory concentration (IC50) was 2040 nM.

Regarding `Clc1ccc2nc(Nc3ccc4[nH]cnc4c3)nc(NCCc3c[nH]c4ccccc34)c2c1`, the IC50 stood at 3070 nM. With `O=C1Cc2cc(Nc3nc(NCCc4c[nH]c5ccccc45)c4cc(Cl)ccc4n3)ccc2N1`, the 50% inhibitory concentration (IC50) stood at 1760 nM. Regarding `Clc1ccc2nc(Nc3ccc4[nH]nnc4c3)nc(NCCc3c[nH]c4ccccc34)c2c1`, the IC50 was 1160 nM.

A further data set has as its target T1, Serine/threonine-protein kinase PAK 4. The data set is described as follows: Inhibition of myc-tagged PAK4 (unknown origin) using histone H3 as substrate preincubated for 30 mins followed by substrate addition measured for 30 mins in presence of [gamma-32P]ATP by autoradiographic method.
Settings: not given
In the case of `COc1cccc(Nc2nc(NCC3CCCO3)c3ccccc3n2)c1` (configuration not stated), the 50% inhibitory concentration (IC50) was determined as 14500 nM.
